The term MIC denotes the smallest concentration in the dilution series that meets the test's criterion for growth inhibition. What is called MBC is the smallest concentration meeting the test's criterion for killing.

For assay [1], the system named is B. henselae. The assay can be described thus: MIC assay in liquid culture media (OD600). The class given is cell-based, Bartonella henselae. Here is the method: (§1) The B. henselae strains used were San Antonio 2, 267HO04, a human clinical isolate and B. vinsonii subsp. berkhoffii. Both the bacteria were initially grown on tryptic soy agar (TSA) supplemented with 5% defibrinated sheep blood plates that were either pre-made (Remel, R01198) or homemade, in a humidified atmosphere at 37° C. with 5% CO2 for 7 days. For the preparation of liquid cultures, an individual well-grown colony from the plate was resuspended in 15 ml Falcon tubes containing 3 mL of either Schneider's insect media supplemented with 10% FBS, or Grace's insect media (Gibco, 11605-094) supplemented with 10% FBS, or BAPGM serum-free liquid media. The cultures grew for 7 more days in the atmosphere as above without shaking. The number of viable bacteria was determined by either plating serial dilutions of the culture on plates for CFU or by live/dead staining. Before every experiment, bacteria were mixed well and passed through 22-gauge needle to break large clumps of bacteria.
Optical density (OD) of 7-day old bacterial liquid culture that was grown from an individual colony was measured using a spectrophotometer (Bio-Rad, SmartSpec 300, 170-2501). Bacterial culture was then diluted down to an OD of 0.1 ? 3×10^8 cfu/ml with the respective media.
To determine the MIC of the antibiotics and for the visualization of the bacterial growth, a clear 96-well plate was used. Into each well of a 96-well plate, 50 μl of the 0.1 OD bacterial culture and 50 μl of the liquid media containing antibiotics were added to the wells bringing the total volume to 100 μl of 0.05 OD bacteria (CFU ? 1.5×10^7) in each well. Wells containing only bacteria with solvent used in the dilution of the antibiotics served as a positive control to verify the growth of bacteria. As a negative control, wells containing only media and solvents were used. Each concentration of diluted antibiotic was run in 4 replicates to minimize the error rate. The 96-well plate was covered with the lid and incubated at 37° C. with 5% CO2. OD of the culture was read after 48 hrs and 96 hrs using a hybrid multi-mode microplate reader (Biotek, Synergy H4 hybrid reader) at OD600. The assay was repeated three times.
(§2) Therapeutic agent stocks were prepared in the following solvents: 10 mg/ml of ceftriaxone (USP), doxycycline (Fisher scientific, D9891-1G), gentamicin (Fisher scientific, 1405-41-0), ampicillin (Fisher scientific, 69-52-3) and azlocillin (Flightpath) in sterile cell culture grade water, whereas 5 mg/ml of azithromycin (Sigma, PZ0007-5MG) was dissolved in sterile cell culture grade DMSO. Antibiotics were then aliquoted and stored at either −80° C. or −20° C. until further use. On the day of assay, these stock concentrations were diluted to 1 mg/ml and 100 μg/ml in the respected bacterial culture media for MIC and cell-free, liquid culture MBC assays. For the DH82 cell-based MBC assay, antibiotics were diluted in EMEM media supplemented with 15% heat inactivated FBS.
The determination of susceptibility to therapeutic agents was performed in liquid culture media. Six different therapeutic agents were tested with multiple different concentrations against B. henselae and B. vinsonii. Therapeutic agent concentrations tested were as follows: Ceftriaxone 0.001, 0.01, 0.1, 0.3, 0.5, 1, 2, and 5 μg/ml; doxycycline 0.001, 0.01, 0.1, 0.3, 0.5, 1, 2, 5, and 10 μg/ml, gentamicin: 0.01, 0.1, 0.3, 0.5, 1, 2, 4, 8, and 16 μg/ml, and azithromycin: 0.001, 0.005, 0.02, 0.1, 0.3, 0.5, 1, 2, 5, and 10 μg/ml, were tested based on previous antibiotic susceptibility studies. The following azlocillin dilutions were included: 0.001, 0.005, 0.01, 0.02, 0.5, 1, 2, and 5 μg/ml. The ampicillin dilutions included were as follows: 0.001, 0.005, 0.01, 0.02, 0.5, 1, 2, 4, and 8 μg/ml. Both the species of Bartonella were susceptible to all the antibiotics that were used in BAPGM and Grace's culture liquid mediums. […]

Assay [2] has as its system B. henselae and B. vinsonii. The assay can be described thus: Cell-free MBC assay, summary over both species. It counts as cell-based, Bartonella. Particulars: 10 μg/ml. On the procedure:
(§3) Briefly, the bacterial culture that was treated with therapeutic agents for 96 hrs was collected into a 1.5 ml microcentrifuge tubes and centrifuged at 7000 rpm for 10 min. The supernatant was removed, and the bacterial pellet was washed with 1×PBS twice. The bacterial pellet was then resuspended in 100 μL of 1×PBS, plated onto blood agar plates and incubated at 37° C. with 5% CO2 for about 14 days. This assay was repeated three times with all the 6 different antibiotics (azlocillin, azithromycin, ceftriaxone, doxycycline, gentamicin and ampicillin) and at different concentrations.
For this assay, both B. henselae and B. vinsonii were grown in Grace's insect media and were tested against all of the 6 antibiotics (ceftriaxone, doxycycline, gentamicin, azithromycin, azlocillin, ampicillin). […] However, ceftriaxone, gentamicin, azithromycin, and azlocillin were all bactericidal and completely eliminated the growth at concentrations below 10 µg/ml. Table 2 provides comparison of MBCs for B. henselae and B. vinsonii strains in cell-free liquid culture medium determined by incubating the bacteria with antibiotics in a 96-well plate and plating on tryptic soy agar supplemented with 5% sheep blood. Additionally, MBC for B. henselae determined by DH82 cell-based assay (right column) is provided.

Assay [3] has as its system B. henselae. The assay is described as follows: Cell-free, liquid culture MBC assay. It counts as cell-based, Bartonella henselae. Particulars: 96 hrs, plated on blood agar. Here is the method: as §1, §3, §2
For this assay, both B. henselae and B. vinsonii were grown in Grace's insect media and were tested against all of the 6 antibiotics (ceftriaxone, doxycycline, gentamicin, azithromycin, azlocillin, ampicillin).

Where [4] appears, read: Bartonella henselae, BAPGM, read-out: MIC.
The mark [5] stands for this setting: Bartonella henselae, Grace's insect media, read-out: MIC.
Where [6] appears, read: Bartonella henselae, Schneider's insect medium, read-out: MIC.
[7] abbreviates: Bartonella henselae, read-out: MBC.

Converted amounts (≈) assume the structure as drawn. Read-outs that look alike come from different tables or passages of the source. Where only a bound is given, the exact number is not on record here.

Turning to `CO/N=C(\C(=O)N[C@@H]1C(=O)N2C(C(=O)O)=C(CSc3nc(=O)c(=O)[nH]n3C)CS[C@H]12)c1csc(N)n1` [Ceftriaxone, ceftriaxone], the MIC in assay [1] (setting [4]) is 0.01 to 0.1 µg/mL; in assay [1] (setting [5]) it was 0.01 to 0.1 µg/mL; in assay [1] (setting [6]) it was over 0.3 µg/mL. In addition, the “growth on blood agar plates” value in assay [2] is listed as “no growth on blood agar plates”. Also, the minimum bactericidal concentration (MBC) in assay [3] (setting [7]) lay in the range of 2 to 4 µg/mL (≈ 3.61 to 7.21 µM).
As for `CC1(C)S[C@@H]2[C@H](NC(=O)[C@H](NC(=O)N3CCNC3=O)c3ccccc3)C(=O)N2[C@H]1C(=O)O` [Azlocillin, azlocillin], the MIC was 0.01 to 0.02 µg/mL in assay [1] (setting [4]), 0.005 to 0.01 µg/mL in assay [1] (setting [5]) and over 2 µg/mL in assay [1] (setting [6]). Moreover, the “growth on blood agar plates” value in assay [2] was “no growth on blood agar plates”. Moreover, the MBC in assay [3] (setting [7]) was in the range of 1 to 2 µg/mL (≈ 2.17 to 4.33 µM).
As for `CC[C@H]1OC(=O)[C@H](C)[C@@H](O[C@H]2C[C@@](C)(OC)[C@@H](O)[C@H](C)O2)[C@H](C)[C@@H](O[C@@H]2O[C@H](C)C[C@H](N(C)C)[C@H]2O)[C@](C)(O)C[C@@H](C)CN(C)[C@H](C)[C@@H](O)[C@]1(C)O` [Azithromycin, azithromycin], the minimum inhibitory concentration (MIC) was 0.005 to 0.02 µg/mL in assay [1] (setting [4]), 0.3 to 0.5 µg/mL in assay [1] (setting [5]) and over 0.02 µg/mL in assay [1] (setting [6]). The “growth on blood agar plates” value in assay [2] is recorded as “no growth on blood agar plates”. Also, the MBC in assay [3] (setting [7]) lay in the range of 5 to 10 µg/mL (≈ 6.68 to 13.4 µM).
Take gentamicin: the results for the MIC in assay [1] (BAPGM), in assay [1] (Grace's insect media) and in assay [1] (Schneider's insect medium) were 0.1 to 0.5 µg/mL, 2.0 to 4.0 µg/mL and over 1 µg/mL, respectively. This compound also displayed an MBC in assay [3] of 2.0 to 4.0 µg/mL.

These data come from patent US20240269158A1, “THERAPEUTIC AGENTS AND METHODS FOR TREATMENT OF BARTONELLOSIS” (THE ADMINISTRATORS OF THE TULANE EDUCATIONAL FUND, priority 2021, published 2024).
